System: DSS-induced colitis
Test: DSS-induced colitis in rats, histological total colitis score of colon sections (HE staining)
Assay type: in vivo
Conditions: male Sprague-Dawley rats, 5% DSS D0-D8 then 2% DSS D9-D28, control diet supplemented with 10 g/kg dry matter serine (DSS-SER) vs alanine-supplemented DSS-ALA group
Method: The experimental procedures were carried out in accordance to European guidelines for the care and use of laboratory animals (Directive 2010/63/UE). 30 male Sprague-Dawley rats from Janvier (France), aged […] and weighting around 500/700g on the day of arrival, were used for this study. Animals were individually housed in cages. During the study, they had free access to food and drinking water or a dextran sulfate sodium (DSS, MW 36-44 kDa, ICN Biomedicals) solution ad libitum. Colitis was induced by treating rats with 5% DSS from D0 to D8 (acute colitis) and then 2% DSS from D9 to D28 (chronic colitis). DSS was dissolved in autoclaved water and provided ad libitum to the rats. Animals of the control group were given water not containing DSS from D0 to D28.
3 groups of rats received the following treatment and diets: […]
At the end of the experiment (D28), animals were anesthetized using a combination of ketamine and xylasine and then euthanized by cervical dislocation. […] A score (ranging from 0 to 3) was finally determined for each criterion on each colon section and a total score was calculated.

In the case of `N[C@@H](CO)C(=O)O` [Serine, serine], the “Total colitis score (sum of 0-3 scores for mucosal degeneration, mucosal regeneration and hyperplasia, acute and sub-acute inflammation)” value (p<0.05) is reported as “significantly lower” and the “Total colitis score (sum of 0-3 scores for mucosal degeneration, mucosal regeneration and hyperplasia, acute and sub-acute inflammation)” value (p<0.05, listed as serine) is reported as “reduced colitis”.
